Where two headings read alike, the source gives them in different places.
Key:
[1] = biological target: angiotensin converting enzyme 2 (ACE2) (Homo sapiens, UniProt Q9BYF1); conditions: Speth et al. 2014, cited from earlier work
SARS-CoV-2 = assay type: in vivo; conditions: patients receiving zinc prophylactically for AMD or for treatment of AMD

angiotensin converting enzyme 2 (ACE2), sequence (Q9BYF1 18-805): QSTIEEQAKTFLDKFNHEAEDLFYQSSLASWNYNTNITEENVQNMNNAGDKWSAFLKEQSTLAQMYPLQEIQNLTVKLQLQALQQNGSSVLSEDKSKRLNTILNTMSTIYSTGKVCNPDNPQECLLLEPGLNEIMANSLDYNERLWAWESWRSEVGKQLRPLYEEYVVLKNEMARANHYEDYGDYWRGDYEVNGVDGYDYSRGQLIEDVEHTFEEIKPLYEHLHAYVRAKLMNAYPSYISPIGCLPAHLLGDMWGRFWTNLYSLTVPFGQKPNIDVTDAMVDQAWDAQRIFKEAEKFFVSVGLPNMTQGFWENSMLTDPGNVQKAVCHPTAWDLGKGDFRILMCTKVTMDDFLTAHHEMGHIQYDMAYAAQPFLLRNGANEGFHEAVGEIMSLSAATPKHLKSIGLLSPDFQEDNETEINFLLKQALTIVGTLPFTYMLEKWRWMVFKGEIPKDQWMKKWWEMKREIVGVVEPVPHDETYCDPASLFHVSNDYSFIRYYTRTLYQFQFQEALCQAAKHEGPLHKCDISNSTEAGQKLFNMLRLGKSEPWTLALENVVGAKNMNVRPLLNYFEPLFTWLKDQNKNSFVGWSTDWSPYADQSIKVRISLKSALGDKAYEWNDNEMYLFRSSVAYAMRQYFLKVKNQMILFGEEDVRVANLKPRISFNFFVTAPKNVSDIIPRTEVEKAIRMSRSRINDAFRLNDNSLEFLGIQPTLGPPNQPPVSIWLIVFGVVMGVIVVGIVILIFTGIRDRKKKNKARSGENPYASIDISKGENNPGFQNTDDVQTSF

Substance: zinc
- inhibition of ACE2 function [1]: inhibitor of ACE2 function
- inhibition of ACE2 function ([1]; listed as Zinc): can inhibit the function of ACE2
- COVID-19-related deaths (SARS-CoV-2): no COVID-19-related deaths
